The values that follow come from US20250241882A1, “COMPOSITION FOR TREATMENT OF THE SKIN” (DR. KURT WOLFF GMBH & CO. KG, priority 2022, published 2025).

What all share (type): cell-based, human
In assay [1] the test system is HaCaT cells. The assay can be described thus: MTT assay, cell viability. Particulars: after 48 h and 72 h of cultivation, versus control without DMG. How it is done:
(§1) 1. As part of an in-vitro study, the effect of Na-dimethylglycinate was investigated in a cell culture model with human horn-forming keratinocyte cells. For this purpose, HaCaT cells were cultured for 1, 3, 5, and 7 days in DMEM medium (including fetal calf serum and an antibiotic-antimycotic mix) and, among other things, the viability, proliferation and migration of the cells were determined using suitable measuring methods, as well as the expression of the growth factors relevant for cell growth.
For this measurement, a so-called MTT assay was used to determine cellular metabolic activity as an indicator of cell viability and cytotoxicity. This colorimetric assay is based on the reduction of a yellow tetrazolium salt (3-(4,5-dimethylthiazol-2-yl)-2,5-diphenyltetrazolium bromide or MTT) to violet formazan crystals by metabolically active cells.
Human epidermal keratinocyte cells (HaCaT) were seeded in a 96-well plate at a cell density of 5,000 cells/well and cultured in medium (DMEM with 10% FBS, 1% penicillin-streptomycin, 0.5% Fungizone). […]
Cell viability was determined using MTT assay. The absorbance was measured using quadruple determination and standardized to the control at 24 h. […]

The subject of assay [2] is VEGF. The assay can be described thus: VEGF gene expression by qRT-PCR in HaCaT cells. Particulars: after 24 h of cultivation, standardized to GAPDH, versus control. How it is done: VEGF (vascular endothelial growth factor) promotes the growth and formation of new blood and lymph vessels. Gene expression was measured using a standard method of quantitative real-time PCR (qRT-PCR).
Human epidermal keratinocyte cells (HaCaT) were seeded in a 6-well plate at a cell density of 140,000 cells/well and cultured in medium (DMEM with 10% FBS, 1% penicillin-streptomycin, 0.5% Fungizone) at 37° C. and 5 vol. % CO2. The next day, the cell culture medium was changed without (control) and with the active ingredient concentrations already contained and the cells were harvested after 24 h. Gene expression was measured using qRT-PCR based on previously published studies in B. V. Diaz, M.-C. Lenoir, A. Ladoux, C. Frelin, M. Demarchez, S. Michel, Journal of Biological Chemistry 2000, 275, 642-650.
Shown is the relative gene expression of VEGF determined by qRT-PCR (triple determination, standardized to the corresponding gene expression of a constitutively expressed gene; GAPDH-glyceraldehyde-3-phosphate dehydrogenase). The mean value with standard deviation is given.
(Quantitative PCR measures a nucleic acid by following its amplification.)

Assay [3] concerns HaCaT cells. In words: CyQUANT assay, cell proliferation. Particulars: after 48 h and 72 h of cultivation, versus control without DMG. As for the experimental part:
as §1
To measure proliferation, a so-called CyQUANT assay was performed. In this fluorescence-based assay, the fluorescent dye used binds to DNA (deoxyribonucleic acid), whereby the content of cellular DNA is a direct measure of the number of cells within a sample. Human epidermal keratinocyte cells (HaCaT) were seeded in a 96-well plate at a cell density of 5,000 cells/well and cultured in medium (DMEM with 10% FBS, 1% penicillin-streptomycin, 0.5% Fungizone). The next day and after a further 24 h, 48 h and 72 h of cultivation at 37° C. and 5 vol. % CO2, the cell culture medium was changed without (control) or with the active ingredient concentrations already contained. […]
Cell proliferation was determined using the CyQUANT assay. Fluorescence was measured using triple determination each time and standardized to the control at 24 h. […]

The test system of assay [4] is HaCaT cells. In words: wound healing assay, cell migration. To be noted: different DMG concentrations, 16 h, 20 h, 24 h, compared to the control without DMG. How it is done: as §1
To measure migration, a so-called wound healing assay was performed, based on previously published studies in T. Kawabata, T. Otsuka, K. Fujita, G. Sakai, R. Matsushima-Nishiwaki, O. Kozawa, H. Tokuda, International journal of molecular medicine 2018, 42, 3,149-3,156. The principle is based on measuring the migration of cells over time on a cultivation surface yet to be colonized. […]
At time 0 h, the wound was created and images were taken after 16 h, 20 h, and 24 h of cultivation. Based on the images, the cultivation surface, which had not yet been populated by cells, was determined using the ImageJ software. The measured values are standardized to the time point 0 h (maximum size of the wound) and given in %.

Structures are written as SMILES. Entries after “also recorded” stand apart in the source; their conditions may differ.

On to `CN(C)CC(=O)[O-].[Na+]` [DMG, sodium dimethylglycinate], for which the “cell viability (MTT assay)” value in assay [1] is recorded as “significant increase”. In assay [2], the “relative gene expression of VEGF” value was “significant increase; also recorded: significantly increased”. Also, the “cell proliferation (CyQUANT assay)” value in assay [3] is “significant increase”. In addition, the “migration and wound closure” value in assay [4] is “significantly faster”.
